Source: patent US8999315B2, “Bis-quaternary ammonium salt corrosion inhibitors” (Nalco Company, priority 2004, dated 2015)

Key:
[1] = tested on: sulfate-reducing bacteria; assay: Biostatic Assay (NACE standard, serial dilution); type: cell-based; conditions: actives only
Experimental: The biostatic properties of representative bis-quaternary ammonium salts are characterized according to the current NACE standard—NACE TMO194094. Viable organisms are cultured from aqueous field samples in iron-rich media purchased from Commercial Microbiology (Houston, Tex.). Stock solutions of the viable organisms in ferrous media are serially diluted in triplicate. Black iron sulfide precipitates indicate micobial growth (of sulfate-reducing bacteria). Clear media solutions indicate complete cell death. Pure media solutions are used as controls and compared against media spiked with 5 to 500 ppm of a test compound. Additives that require increased dilutions to attain complete cell death […], relative to the standard. Those compounds that required fewer dilutions are relatively biostatic.
Comparative test results for representative bis-quaternary ammonium salts prepared according to the methods of Examples 1 and 2 and commercially available quaternary ammonium salts A and B are shown in Table 3.

[2] = Field Trial, corrosion rate by electrical resistance MicroCor probes in a production line; conditions: corrosion inhibitor formulations, gas/oil/brine multiphase flow
Text: Field corrosion rate data are obtained from a production line in an Alaskan field that is equipped with high sensitivity electrical resistance MicroCor probes (Rohrback Cosasco Systems, Santa Fe Springs, Calif.). The sensing element of the probe, positioned into gas/oil/brine multiphase flow, reads a cumulative metal loss that is transformed into corrosion rate. Once an uninhibited corrosion rate baseline has been established, corrosion inhibitor formulations are incrementally injected upstream of the probe over a period of thirty hours. The resulting drop in corrosion rates are used to calculates protection efficiency and establish the relative rankings of corrosion inhibitor formulations.
Comparative test results for representative bis-quaternary ammonium salts prepared according to the methods of Examples 1 and 2, a commercially available quaternary ammonium salt and a commercially available alkylbenzyldimethylammonium salt are shown in Table 2.

[3] = Wheelbox Test (corrosion of coupons in CO2-purged brine/hydrocarbon); conditions: actives only, 24 hours at 176° F., brine/LVT 200, 500 ppm acetic acid
Experimental: Cleaned and pre-weighed coupons are put into bottles containing a mixture of brine (180 mL), and hydrocarbon (LVT 200, 20 mL) and 500 ppm of acetic acid and the resulting mixture is purged with carbon dioxide. An increasing amount of tested inhibitor (5, 10, 25 and 50 ppm) is added into the bottles, the air space in the bottles is purged with CO2 mixture and immediately capped to avoid air contamination. In addition to those bottles that are dosed with inhibitor, three bottles remain untreated. The complete set of capped test bottles is set on the rotating wheel, and run for 24 hours at 176° F. On conclusion of the test, the bottles are removed and allowed to cool to room temperature. The bottles are then uncapped and the coupons are removed, cleaned, dried and re-weighed. Corrosion rate and protection efficiency are then calculated by comparing the mass loss of inhibited coupons to those of the blanks.
Comparative test results for representative bis-quaternary ammonium salts prepared according to the methods of Examples 1 and 2 and a commercially available quaternary ammonium salt are shown in Table 1.

SMILES	log reduction of SRB growth ([1]; 10 ppm)	log reduction of SRB growth ([1]; 25 ppm)	log reduction of SRB growth ([1]; 100 ppm)	Percent Protection ([2]; 3 ppm)	Percent Protection ([2]; 6 ppm)	Percent Protection ([2]; 11 ppm)	Percent Protection ([2]; 22 ppm)	Percent Protection ([2]; 44 ppm)	Percent Protection ([3]; 5 ppm inhibitor)	Percent Protection ([3]; 10 ppm inhibitor)	Percent Protection ([3]; 25 ppm inhibitor)	Percent Protection ([3]; 50 ppm inhibitor)
CCCCCCCCCCCC[N+](C)(C)CC(O)C[N+](C)(C)CCCCCCCCCCCC.CCCCCCCCCCCC[N+](C)(C)CC(O)C[N+](C)(C)CCCCCCCCCCCC.O=S(=O)([O-])[O-].[Cl-].[Cl-] [Example 1]	6 log	6 log	6 log	60.5%	87.6%	89.8%	91.8%	98.3%	65%	81%	92%	91%
CCCCCCCCC=CCCCCCCCCN(CC(O)C[N+](C)(C)CCCCCCCCCCCC)CC(O)C[N+](C)(C)CCCCCCCCCCCC.[Cl-].[Cl-] (stereo not drawn) [Example 2]	0 log	6 log	6 log	76.2%	96.2%	95.3%	97.8%	98.0%	21%	73%	86%	89%
